According to US20250319139A1, “METHODS FOR TREATING NEUROINFLAMMATION” (University of Virginia Patent Foundation, priority 2021, published 2025):

Tests used:
[1] = tested on: GDNF; experiment: GDNF in the hippocampus by ELISA; assay type: in vivo, mouse; conditions: exercise mice with surgery; intraperitoneal valeric acid
Description: IL-1β, IL-6, C3 and GDNF in the hippocampus were detected by using ELISA kits. For testing the IL-1β, IL-6 and GDNF, brain tissues were homogenized on ice in the RIPA buffer containing 25 mM Tris-HCl with pH 7.6, 150 mM NaCl, 1% sodium deoxycholate, 0.1% SDS and a protease inhibitor cocktail containing 10 mg/ml aproteinin, 5 mg/ml […], 5 mg/ml leupetin and 1 mM phenylmethane sulfonylfluoride. For C3 testing, brain tissues were homogenized on ice in the PTR buffer (supplied in the kit). The supernatant was collected for ELISA detection after the homogenate was centrifuged at 13,000 g for 20 min at 4° C. and the protein concentration was determined by the BCA protein assay (Bio-Rad, Hemel Hempstead, Herts, UK). IL-1β, IL-6, C3 and GDNF in supernatant of brain were detected according to the manufacturer's instruction for ELISA, and the amount of them in each sample in the brain was normalized by its total protein content and was expressed as pg/mg protein.

[2] = tested on: Iba-1; experiment: Iba-1 immunofluorescent staining of hippocampus; assay type: in vivo, mouse; conditions: young adult mice with exercise and surgery; intraperitoneal valeric acid
Description: The immunofluorescent labeling and quantification of the staining were performed as described before. Briefly, brain was fixed in 4% paraformaldehyde at 4° C. for 24 h and then incubated in 30% sucrose over night at 4° C. before being frozen in optimal cutting temperature compound. Coronal 20-μm thick sections were cut sequentially from Bregma -3 to -6 mm by using a cryostat and mounted on microscope slides. After being washed in Tris-buffered saline (TBS), sections were blocked in 10% donkey serum plus 1% bovine serum albumin (BSA) in TBS containing 0. 3% triton-X 100 for 2 h at room temperature and then incubated at 4° C. overnight with the following primary antibodies: rabbit monoclonal anti-C3 antibody (1:50), goat monoclonal anti-GFAP antibody (1:200), rat monoclonal anti-[…] antibody (1:50) and rabbit monoclonal anti-Iba-1 antibody (1:200). Sections were rinsed in TBS with 0.1% Triton-x 100. […] The quantification was performed as described previously. […] The number of pixels per image with intensity above a predetermined threshold level was considered as a positively stained area for an interested marker and quantified using the Image-pro plus 6.0 (Media Cybernetics, Inc., Rockville, MD, USA) and presented as percentage of positive area in the total area. […] All quantitative analyses were performed in a blinded manner.

[3] = references [27, 32]; cited from earlier work
[4] = Cortical valeric acid quantification by HPLC; assay type: in vivo, mouse; conditions: 9-week old mice, intraperitoneal valeric acid vs normal saline; 24 h after the last injection
Description: The amount of valeric acid in the cerebral cortex harvested 24 h after the last intraperitoneal injection of valeric acid was determined by a method similar to that reported before. Briefly, 0.1 g cerebral cortex was homogenized in 500 μl aqueous acetonitrile. Supernatant was extracted with 8 ml extraction buffer (hexane: diethyl ether=1:1) and centrifuged at 1800 g for 5 min. 7.5 ml supernatant was collected, mixed with 93 μl 20 mM KOH in methanol and dried at 40° C. under nitrogen gas. Dried residue was reconstituted in 50 μl 2.5% 18-Crown-6 in acetonitrile and was further derivatized with 9-chloromethylanthracene in acetonitrile with addition of tetramethylammonium hydroxide. Finally, 30 μl derivatization solution was loaded to Acclaim C18 column (3 μm, 4.6×100 mm, Thermo Scientific) and separated in Ultimate 3000 high performance liquid chromatograph (HPLC, Thermo Scientific) equipped with UV-visible detector. The peak of derivatized valeric acid was detected at a wavelength of 254 nm. 2-Ethylbutyric acid (2-EA) was added as an internal reference control. The peak area of valeric acid was measured as mAU*min and its peak area of each sample was normalized with that of 2-EA in the sample. Final results were presented as ratios of valeric acid group to NS group.

[5] = tested on: C57BL/6J mice; experiment: Novel object recognition test, young adult mice; assay type: in vivo, mouse
[6] = tested on: C57BL/6J mice; experiment: Novel object recognition test, old mice; assay type: in vivo, mouse; conditions: old mice with exercise and surgery; intraperitoneal valeric acid once a week vs normal saline
[7] = tested on: IL-17; experiment: ELISA of IL-17 in the serum; assay type: in vivo, mouse
Description: Mice were weighed and anesthetized with isoflurane at 24 h after MCAO. Blood samples were obtained from the right heart after thoracotomy. Blood was centrifuged (13,000 g, 4° C.) after it had been placed at 4° C. for 2 h for the collection of serum. After the collection of blood, mice were perfused with 4° C. saline for brain tissue harvesting. The cerebral cortex (anteroposterior: −1.5 to 2.5 mm, mediolateral: 1.0 to 3.0 mm) was dissected out. All dissection procedures were performed on ice.
IL-10, IL-17, IL-1β and IL-6 in the serum and brain were detected by using ELISA kits (catalog number: M1000B, M1700, MLB00C and D6050, R&D SYSTEM, Inc., Minneapolis, MN, USA) as we described before. The brain tissues were homogenized on ice in the RIPA buffer containing 25 mM Tris-HCl with pH 7.6, 150 mM NaCl, 1% sodium deoxycholate and 0.1% SDS (catalog number: 89901, Thermo Scientific, Rockford, IL, USA) and a protease inhibitor cocktail containing 10 mg/ml aproteinin, 5 mg/ml peptastin, 5 mg/ml leupetin and 1 mM phenylmethane sulfonylfluoride (catalog number: SRE0055, Sigma-Aldrich, St. Louis, MO, USA). The supernatant was collected for ELISA detection after being centrifuged for 20 min (13,000 g, 4° C.) and the protein concentration was determined by the BCA method. Cytokines in the serum and supernatant of brain were detected according to the manufacturer's instruction. The amount of IL-10, IL-17, IL-1β and IL-6 in each sample in the brain was normalized by its protein content.

For `CCCCC(=O)O` [valeric acid], the “GDNF levels in the hippocampus” value [1] is given as “decreased”, the “exercise-induced reduction of Iba-1 in the hippocampus” value [2] is given as “this reduction was blocked” and the “crossing of blood-brain barrier” value [3] is given as “can cross blood-brain barrier”. For the same compound, the “amount of valeric acid in the brain (cerebral cortex)” value [4] was “increased”, the “performance in novel object recognition test” value (“performance” for short) ([5]; 13-week old mice without surgery, intracerebroventricular 4 mg/kg once daily for 4 days (1/50 dose of intraperitoneal injection)) was “did not affect the performance” and the “performance” value ([5]; young adult mice with exercise and surgery, valeric acid 200 mg/kg intraperitoneal once a week vs normal saline) was “abolished”. For the same compound, the “performance” value [6] was “impaired the performance”, the “IL-17 in the blood” value ([7]; mice without MCAO, valeric sodium 100 mg/kg intraperitoneal for 7 days) was “increase” and the “IL-17 in the blood” value ([7]; young mice, 100 mg/kg intraperitoneal 1 h before and 6 h after 120-min MCAO, 24 h after MCAO, vs saline) was “increased”.
